According to patent US20060093596A1, “Genomic approach to identification of novel broad-spectrum antimicrobial peptides from bony fish” (priority 2002, published 2006):
“Also recorded” adds a separate entry of the source. Where no end group is shown, it is not given here.

How the values were obtained:
[1] = system: Aeromonas salmonicida 99-1, A449
Description: (§3) Most non-fish bacterial strains as well as Candida albicans were grown at 37° C. in Mueller-Hinton Broth (MHB; Difco Laboratories, Detroit), while the fish bacteria were maintained at 16° C. in Tryptic Soy Broth (TSB; Difco, 5g/l NaCl).
(§4) Two field isolates of the salmonid pathogen Aeromonas salmonicida are from the IMB strain collection.
(§5) The activities of the antimicrobial peptides were determined as minimal inhibitory concentrations (MICs) using the microtitre broth dilution method of Amsterdam (Amsterdam, 1996), as modified by Wu and Hancock (1999). Serial dilutions of the peptide were made in water in 96-well polypropylene (Costar, Coming Incorporated, Coming, New York) microtiter plates. Bacteria or C. albicans were grown overnight to mid-logarithmic phase as described above, and diluted to give a final inoculum size of 10^6 cfu/ml. A suspension of bacteria or yeast was added to each well of a 96 well plate and incubated overnight at the appropriate temperature. […] Three repeats of each MIC determination were performed.

[2] = system: bacterial pathogens and C. albicans; experiment: Spectrum of antimicrobial activity (MIC panel, overall); assay type: cell-based; settings: summary of MIC results against bacteria and C. albicans
Description: Three repeats of each MIC determination were performed.
The minimal inhibitory concentrations of the chemically produced peptides against a wide range of baterial pathogens and C. albicans were determined and are shown in Table 9.

[3] = system: Candida albicans C627, CALB105; settings: for Minimal inhibitory concentration, C. alb C627: C627, CALB105
Description: (§6) Most non-fish bacterial strains as well as Candida albicans were grown at 37° C. in Mueller-Hinton Broth (MHB; Difco Laboratories, Detroit), while the fish bacteria were maintained at 16° C. in Tryptic Soy Broth (TSB; Difco, 5g/l NaCl). All strains were stored at −70° C. until they were thawed for use and sub-cultured daily. The following strains, Pseudomonas aeruginosa K799 (parent of Z61), Pseudomonas aeruginosa Z61 (antibiotic supersusceptible), Salmonella typhimurium 14028s (parent of MS7953s), Salmonella typhimurium MS7953s (defensin supersusceptible), as well as Staphylococcus epidermidis (human clinical isolates) and methicillin-resistant Staphylococcus aureus (MRSA; isolated by Dr. A. Chow, University of British Columbia) have been kindly donated by Prof R. E. W. Hancock, University of British Columbia.
as §5

[4] = system: Escherichia coli UB1005 (C498); assay type: cell-based; settings: lowest peptide concentration inhibiting growth by at least 50%; Mueller-Hinton broth
Description: as §6, §5

P. aeruginosa K799 = experiment: Killing assay in culture supplemented with NaCl; assay type: cell-based, Pseudomonas aeruginosa; settings: culture supplemented with 150 mM NaCl; 4 μg/ml (MIC) or 40 μg/ml (10×MIC); FIG. 25
Description: (§1) Survival of bacteria and C. albicans upon exposure to selected peptides applied at their minimal inhibitory concentrations (MICs) and ten times their MICs was measured using standard methodology. The test organisms were grown in MHB and exposed to the peptides. At the specified time intervals equal aliquots were removed from the cultures, plated on MHB plates, and the resulting colonies were counted. Percentage survival was plotted against time on a logarithmic scale. Two repeats of each experiment were performed.
Peptides of the invention can be used at a range of pH's, salt concentrations, and temperatures. These peptides are useful against pathogens grown in biofilms or under any other conditions for pathogen growth or culture. See for example FIG. 25 in which the ability of NRC-13 to kill P. aeruginosa K799 in […] is shown. NRC-13 was added to a culture of P. aeruginosa supplemented with 150 mM NaCl to a final concentration of 4 μg/ml (□) or 40 μg/ml (Δ), representing the MIC and 10×MIC, respectively. A control with no peptide added is also shown (♦).

Pseudomonas aeruginosa = experiment: Killing assay (survival at MIC and ten times MIC); assay type: cell-based
Description: as §1
(§2) FIG. 14 describes Survival of a Gram-negative bacterium (Pseudomonas aeruginosa) upon exposure to NRC-13 at its minimal inhibitory concentration (MIC) and ten times its MIC. P. aeruginosa was grown in Mueller-Hinton broth and exposed to NRC-13 at its MIC and ten times its MIC. At the specified intervals equal aliquots were removed from the culture, plated on MHB plates, and the resulting colonies were counted.

[5] = system: Escherichia coli C786, CGSC4908; assay type: cell-based; settings: lowest peptide concentration inhibiting growth by at least 50%; supplemented Mueller-Hinton broth
Description: All strains were stored at −70° C. until they were thawed for use and sub-cultured daily.
Escherichia coli strain CGSC 4908 (his-67, thyA43, pyr-37), auxotrophic for thymidine, uridine, and L-histidine (Cohen et al., 1963) was kindly supplied, free of charge, by the E.coli Genetic Stock Centre (Yale University, New Haven, Conn.). MHB supplemented with 5 mg/L thymidine, 10 mg/L uridine and 20 mg/L L-histidine (Sigma Chemical Co., St. Louis, Mo.), was used to grow E.coli CGSC 4908 unless otherwise specified.
The activities of the antimicrobial peptides were determined as minimal inhibitory concentrations (MICs) using the microtitre broth dilution method of Amsterdam (Amsterdam, 1996), as modified by Wu and Hancock (1999). Serial dilutions of the peptide were made in water in 96-well polypropylene (Costar, Coming Incorporated, Coming, New York) microtiter plates. Bacteria or C. albicans were grown overnight to mid-logarithmic phase as described above, and diluted to give a final inoculum size of 10^6 cfu/ml. A suspension of bacteria or yeast was added to each well of a 96 well plate and incubated overnight at the appropriate temperature. In the case of E. coli CGSC 4908, supplemented MHB was used. […] Three repeats of each MIC determination were performed.

[6] = system: Pseudomonas aeruginosa Z61 (H188, supersusceptible strain); assay type: cell-based; settings: for Minimal inhibitory concentration, P. aeru Z61: lowest peptide concentration inhibiting growth by at least 50%, Mueller-Hinton broth
Description: as §6, §5

[7] = system: methicillin-resistant Staphylococcus aureus (MRSA) C623, SAP017; settings: for Minimal inhibitory concentration, MRSA C623: methicillin-resistant C623, SAP017
Description: as §6, §5

[8] = system: Pseudomonas aeruginosa K799 (H187); assay type: cell-based; settings: for Minimal inhibitory concentration, P. aeru K799: lowest peptide concentration inhibiting growth by at least 50%, Mueller-Hinton broth
Description: as §6, §5

[9] = system: Salmonella enterica s. Typhimurium MS4252S (C610, supersusceptible strain); assay type: cell-based; settings: lowest peptide concentration inhibiting growth by at least 50%; Mueller-Hinton broth
Description: as §6, §5

[10] = system: Aeromonas salmonicida 97-4
Description: as §3, §4, §5

[11] = system: Salmonella enterica s. Typhimurium 14028S (C587); assay type: cell-based; settings: lowest peptide concentration inhibiting growth by at least 50%; Mueller-Hinton broth
Description: as §6, §5

[12] = system: Staphylococcus epidermidis C621 (clinical isolate)
Description: as §6, §5

[13] = system: Escherichia coli DC2 (C500, outer membrane-permeable mutant); assay type: cell-based; settings: lowest peptide concentration inhibiting growth by at least 50%; Mueller-Hinton broth
Description: as §6, §5

Vibrio anguillarum = settings: Coho salmon; Jia et al. 2000; cited from earlier work
Candida albicans = experiment: Killing assay (survival at MIC and ten times MIC); assay type: cell-based; settings: Mueller-Hinton broth, FIG. 15
Description: as §1
as §2, with “15” for “14”, “yeast (Candida albicans)” for “Gram-negative bacterium (Pseudomonas aeruginosa)”, “NRC-12” for “NRC-13”, “C. albicans” for “P. aeruginosa”

[14] = system: methicillin-resistant Staphylococcus aureus (MRSA); experiment: Killing assay (survival at MIC and ten times MIC); assay type: cell-based; settings: Mueller-Hinton broth, FIG. 13
Description: as §1
as §2, with “13” for “14”, “Gram-positive” for “Gram-negative”, “(methicillin-resistant Staphylococcus aureus—MRSA)” for “(Pseudomonas aeruginosa)”, “NRC-15” for “NRC-13”, “S. aureus” for “P. aeruginosa”

| Substance | Minimal inhibitory concentration, A. sal 99-1 [1] | antimicrobial activity, overall (in words) [2] | Minimal inhibitory concentration, C. alb C627 [3] | Minimal inhibitory concentration, E. coli UB1005 [4] | Minimal inhibitory concentration, E. coli C786 [5] | Minimal inhibitory concentration, P. aeru Z61 [6] | concentration inhibiting the growth of methicillin-resistant S. aureus [7] | Minimal inhibitory concentration, MRSA C623 [7] | Minimal inhibitory concentration, S. typh MS4252s [9] | Minimal inhibitory concentration, A. sal 97-4 [10] | Minimal inhibitory concentration, S. typh 14028s [11] | Minimal inhibitory concentration, S. epi C621 [12] | Minimal inhibitory concentration, E. coli DC2 [13] | Minimal inhibitory concentration, P. aeru K799 [8] | also measured |
| --- | --- | --- | --- | --- | --- | --- | --- | --- | --- | --- | --- | --- | --- | --- | --- |
| GWRTLLKKAEVKTVGKLALKHYL-NH2 [NRC-13] | 4 µg/mL | broad spectrum of antimicrobial activity; also recorded: highly active | 4 µg/mL | 4 µg/mL | 2 µg/mL | 1 µg/mL | 4 µg/mL | 4 µg/mL | 2 µg/mL | 2 µg/mL | 8 µg/mL | 4 µg/mL | 2 µg/mL | – | concentration inhibiting the growth of C. albicans [3]: 4 µg/mL; ability to kill P. aeruginosa K799 in NaCl (P. aeruginosa K799): kill; ability to kill P. aeruginosa (Pseudomonas aeruginosa; at MIC and ten times MIC, Mueller-Hinton broth, FIG. 14): ability to kill; concentration killing P. aeruginosa (Pseudomonas aeruginosa; strain not stated): 1 µg/mL; concentration inhibiting the growth of P. aeruginosa ([6]; strain not stated, value matches Z61 of Table 8): 1 µg/mL; MIC against P. aeruginosa K799 ([8]; text statement to FIG. 25): 4 µg/mL; concentration inhibiting the growth of A. salmonicida ([10]; strain not stated, value matches 97-4 of Table 8): 2 µg/mL |
| pleurocidin (GWGSFFKKAAHVGKHVGKAALTHYL-NH2; UniProt P81941 23-47, looked up) [Synthetic pleurocidin, Synthetic pleurocidin identical to the central portion of WF2 (Jia et al. 2000)] | – | – | – | – | – | – | – | – | – | – | – | – | – | – | protection against infection by Vibrio anguillarum (Vibrio anguillarum): protect Coho salmon against infection |
| GWKKWFNRAKKVGKTVGGLAVDHYL-NH2 [NRC-12] | 2 µg/mL | broad spectrum of antimicrobial activity | 4 µg/mL | 8 µg/mL | 2 µg/mL | 1 µg/mL | – | 16 µg/mL | 2 µg/mL | 2 µg/mL | 8 µg/mL | 8 µg/mL | 2 µg/mL | 4 µg/mL | ability to kill C. albicans (Candida albicans): ability to kill |
| GFWGKLFKLGLHGIGLLHLHL-NH2 [NRC-15] | 8 µg/mL | broad spectrum of antimicrobial activity | 16 µg/mL | 8 µg/mL | 8 µg/mL | 4 µg/mL | 4 µg/mL | 4 µg/mL | 4 µg/mL | 16 µg/mL | 16 µg/mL | 4 µg/mL | 8 µg/mL | 8 µg/mL | ability to kill methicillin-resistant S. aureus [14]: ability to kill |
| RSTEDIIKSISGGGFLNAMNA-NH2 [NRC-8] | >64 µg/mL | poor or no observed activities | >64 µg/mL | >64 µg/mL | >64 µg/mL | >64 µg/mL | – | >64 µg/mL | >64 µg/mL | >64 µg/mL | >64 µg/mL | >64 µg/mL | >64 µg/mL | >64 µg/mL | – |
